Test systems include Candida albicans SC5314; Bacillus subtilis; Alternaria brassicicola; Fusarium haematococcum; Botrytis cinerea; Pediococcus acidilactici; Ascochyta pisi; Micrococcus luteus; Fusarium culmorum; Trichoderma viride; Bacillus megaterium; Aerococcus viridans; Neurospora crassa; Staphylococcus aureus 31; Staphylococcus aureus 38.
Assay in all cases: ≥ marks a high value that may be exact or a test limit, other limits are often not marked, values filed in µg/mL are converted to µM
For experiment [1], the system named is Pseudomonas aeruginosa ATCC 27853.
Experiment [2] has as its system Cryptococcus neoformans var. grubii H99.
Experiment [3] relates to Xanthomonas oryzae pv. oryzae.
Experiment [4] concerns Xanthomonas campestris pv. campestris.
Experiment [5] concerns Escherichia coli DH5alpha.
The test system of experiment [6] is Trichosporon beigelii KCTC 7707.
For experiment [7], the system named is Listeria monocytogenes KCTC 3710.
Experiment [8] relates to Aspergillus awamori KCTC 6915.
Experiment [9] relates to Bacillus subtilis KCTC 1998.
Experiment [10] concerns Pseudomonas aeruginosa ATCC 15692.
Experiment [11] deals with Proteus vulgaris KCTC 2433.
In experiment [12] the test system is Escherichia coli ATCC 25922.
Experiment [13] concerns Aspergillus flavus KCTC 6905.
In experiment [14] the test system is Staphylococcus aureus ATCC 25923.
For experiment [15], the system named is Salmonella typhimurium KCTC 1926.
Experiment [16] concerns Staphylococcus epidermidis ATCC 12228.
The test system of experiment [17] is Aspergillus fumigatus KCTC 6145.
Experiment [18] deals with Candida albicans KCTC 7270.
In experiment [19] the test system is Aspergillus parasiticus KCTC 6598.
Experiment [20] has as its system Candida albicans 08022821.
For experiment [21], the system named is Candida albicans ATCC 2002.
The test system of experiment [22] is Candida albicans 08032815.
The subject of experiment [23] is Candida albicans 08030809.
The subject of experiment [24] is Staphylococcus aureus ATCC 2592.
Experiment [25] deals with Candida albicans 08022710.
In experiment [26] the test system is Pseudomonas aeruginosa ATCC 19660.
Experiment [27] concerns Pseudomonas aeruginosa 6294.
For experiment [28], the system named is Pseudomonas aeruginosa 37.
In experiment [29] the test system is Staphylococcus aureus ATCC 6538.
In experiment [30] the test system is Pseudomonas aeruginosa 6206.
Experiment [31] concerns Staphylococcus aureus CIP 53.156.
Experiment [32] has as its system Escherichia coli CIP 76.24.

Experimental findings from DBAASP are described below.

Values after ≈ are worked out from the molar mass of the structure shown. Some results are limits rather than exact numbers.

In the case of `CC(C)C[C@H](NC(=O)CNC(=O)[C@H](CS)NC(=O)CNC(=O)[C@H](CC(N)=O)NC(=O)CNC(=O)[C@H](Cc1c[nH]c2ccccc12)NC(=O)CNC(=O)[C@H](CCCN=C(N)N)NC(=O)[C@H](CC(=O)O)NC(=O)[C@@H](N)C(C)C)C(=O)N[C@@H](Cc1ccccc1)C(=O)NCC(=O)N[C@@H](CCCCN)C(=O)NCC(=O)NCC(=O)O` [VDRGWGNGCGLFGKGG], the MIC (commonly the lowest concentration found to suppress growth) in the experiment on Candida albicans SC5314 is at least 100 µM; in experiment [1], above 100 µM; with Bacillus subtilis it was at least 100 µM; in experiment [2] it was at least 100 µM; in [3], at least 100 µM; in experiment [4] it was at least 100 µM. In addition, in experiment [5], the minimal inhibitory concentration (MIC) was at least 100 µM.

Turning to `CC[C@H](C)[C@H](NC(=O)[C@H](CCCCN)NC(=O)[C@H](CCCCN)NC(=O)[C@H](C)NC(=O)[C@H](CC(C)C)NC(=O)[C@H](CCCCN)NC(=O)[C@H](CCCCN)NC(=O)[C@H](CC(C)C)NC(=O)[C@H](CCCN=C(N)N)NC(=O)[C@H](CCCCN)NC(=O)[C@@H](N)Cc1ccccc1)C(=O)N[C@@H](Cc1c[nH]c2ccccc12)C(=O)N[C@@H](CC(N)=O)C(=O)N[C@@H](Cc1c[nH]c2ccccc12)C(=O)N[C@@H](CCCCN)C(N)=O` [FKRLKKLAKKIWNWK], the MIC was determined as 16 µM (≈ 31.8 µg/mL) in experiment [6]; 2 µM (≈ 3.97 µg/mL) in experiment [7]; 16 µM (≈ 31.8 µg/mL) in experiment [8]; 4 µM (≈ 7.95 µg/mL) in [9]; 2 µM (≈ 3.97 µg/mL) in [10]; 4 µM (≈ 7.95 µg/mL) in experiment [11]. The MIC in experiment [12] came out at 4 µM (≈ 7.95 µg/mL); in experiment [13] it was 16 µM (≈ 31.8 µg/mL); in experiment [14] it was 4 µM (≈ 7.95 µg/mL); in experiment [15], 2 µM (≈ 3.97 µg/mL); in experiment [16] it was 2.83 µM (≈ 5.62 µg/mL); in experiment [17] it was 8 µM (≈ 15.9 µg/mL). For the same compound, the minimum inhibitory concentration (MIC) in experiment [18] and in [19] was 8 µM (≈ 15.9 µg/mL) each time.

For `CC(C)[C@H](N)C(=O)N[C@@H](CCCCN)C(=O)N[C@@H](CCCN=C(N)N)C(=O)N[C@@H](Cc1c[nH]c2ccccc12)C(=O)N[C@@H](CCCCN)C(=O)N[C@@H](CCCCN)C(=O)N[C@@H](Cc1c[nH]c2ccccc12)C(=O)N[C@@H](CCCN=C(N)N)C(=O)N[C@@H](Cc1c[nH]c2ccccc12)C(=O)N[C@@H](CCCCN)C(=O)N[C@@H](Cc1c[nH]c2ccccc12)C(=O)N[C@@H](CCCCN)C(=O)N[C@@H](CCCCN)C(=O)N[C@@H](Cc1c[nH]c2ccccc12)C(=O)N[C@H](C(N)=O)C(C)C` [VKRWKKWRWKWKKWV], the MIC in experiment [20] worked out at 1.4 µM (≈ 3.13 µg/mL); against Bacillus subtilis, 0.525 µM (≈ 1.17 µg/mL); in experiment [21], 0.265 µM (≈ 0.59 µg/mL); in experiment [22] it was 1.25 µM (≈ 2.79 µg/mL); in [23] it was 0.628 µM (≈ 1.4 µg/mL); in experiment [24] it was 0.525 µM (≈ 1.17 µg/mL). In addition, the MIC was found to be 4.21 µM (≈ 9.38 µg/mL) in experiment [12] and 2.1 µM (≈ 4.69 µg/mL) in experiment [25].

Take `CC[C@H](C)[C@H](NC(=O)[C@@H](NC(=O)[C@@H]1CCCN1C(=O)[C@@H](NC(=O)[C@@H]1CCCN1C(=O)[C@H](CCCCN)NC(=O)[C@H](CCCCN)NC(=O)[C@H](CO)NC(=O)CN)C(C)C)[C@@H](C)CC)C(=O)N[C@@H](Cc1ccc(O)cc1)C(=O)N[C@H]1CSSC[C@@H](C(=O)O)NC(=O)[C@H](CCCCN)NC(=O)CNC(=O)[C@H]([C@@H](C)O)NC(=O)[C@H](CCCN=C(N)N)NC(=O)[C@H](CCCN=C(N)N)NC(=O)[C@H](CC(N)=O)NC1=O` [GSKKPVPIIYCNRRTGKC]: the minimal inhibitory concentration (MIC) in the experiment with Alternaria brassicicola came to 7.07 µM (≈ 14.3 µg/mL); against Fusarium haematococcum, 7.07 µM (≈ 14.3 µg/mL); in the experiment with Botrytis cinerea it was 7.07 µM (≈ 14.3 µg/mL); with Pediococcus acidilactici, 28.3 µM (≈ 57.1 µg/mL); against Ascochyta pisi, 28.3 µM (≈ 57.1 µg/mL); against Micrococcus luteus it was 7.07 µM (≈ 14.3 µg/mL). The MIC was 14.1 µM (≈ 28.5 µg/mL) against Fusarium culmorum; 28.3 µM (≈ 57.1 µg/mL) with Trichoderma viride; 7.07 µM (≈ 14.3 µg/mL) with Bacillus megaterium; 3.54 µM (≈ 7.14 µg/mL) with Aerococcus viridans; 14.1 µM (≈ 28.5 µg/mL) in the experiment with Neurospora crassa.

As to `CC[C@H](C)[C@H](NC(=O)[C@H](Cc1c[nH]c2ccccc12)NC(=O)[C@H](CO)NC(=O)[C@@H](NC(=O)[C@H](CC(C)C)NC(=O)[C@@H](N)[C@@H](C)O)[C@@H](C)CC)C(=O)N[C@@H](CCCCN)C(=O)N[C@@H](CC(N)=O)C(=O)N[C@@H](CCCCN)C(=O)N[C@@H](CCCN=C(N)N)C(=O)N[C@@H](CCCCN)C(=O)N[C@@H](CCC(N)=O)C(=O)N[C@@H](CCCN=C(N)N)C(=O)N1CCC[C@H]1C(=O)N[C@@H](CCCN=C(N)N)C(=O)N[C@H](C(=O)N[C@@H](CO)C(=O)N[C@@H](CCCN=C(N)N)C(=O)N[C@@H](CCCN=C(N)N)C(=O)N[C@@H](CCCN=C(N)N)C(=O)N[C@@H](CCCN=C(N)N)C(=O)N[C@@H](CCCN=C(N)N)C(=O)N[C@@H](CCCN=C(N)N)C(=O)NCC(=O)NCC(=O)N[C@@H](CCCN=C(N)N)C(=O)N[C@@H](CCCN=C(N)N)C(=O)N[C@@H](CCCN=C(N)N)C(=O)N[C@@H](CCCN=C(N)N)C(=O)O)C(C)C` [TLISWIKNKRKQRPRVSRRRRRRGGRRRR], the MIC in [26] was at least 132 µM; in experiment [27], at least 66 µM; in the experiment with Staphylococcus aureus 31, at least 33 µM; with Staphylococcus aureus 38, at least 33 µM; in experiment [28] it was at least 33 µM; in experiment [29], 16.5 µM (≈ 62.5 µg/mL). The same compound had a minimal inhibitory concentration (MIC) in [30] of at least 66 µM.

As to `CC[C@H](C)[C@H](N)C(=O)N1CCC[C@H]1C(=O)N[C@@H](Cc1c[nH]c2ccccc12)C(=O)NCC(=O)N[C@@H](CCCCN)C(=O)N[C@H](C(=O)N[C@@H](CCCCN)C(=O)N[C@@H](CC(=O)O)C(=O)N[C@@H](Cc1ccccc1)C(=O)N[C@@H](CC(C)C)C(=O)N[C@H](C(=O)NCC(=O)NCC(=O)N[C@@H](CCSC)C(=O)N[C@@H](CCCCN)C(=O)N[C@@H](C)C(=O)N[C@H](C(N)=O)C(C)C)C(C)C)C(C)C` [IPWGKVKDFLVGGMKAV], the minimal inhibitory concentration (MIC) in experiment [31] was 9 µM (≈ 16.6 µg/mL); in [32] it was at least 49 µM.
